How the values were obtained:
[1] = Intestinal calcium transport in rats on low calcium diet, chronic i.p. doses; assay type: in vivo, Sprague-Dawley rats; conditions: for Ca transport S/M (mean ± SEM): male weanling rats, 0.02% Ca diet, 5 animals; for Activity in stimulating intestinal calcium transport relative to 1,25-(OH)2D3 (in words): summary of Table 1
Description: Intestinal calcium transport was determined as described by Perlman et al. (Biochemistry 29, 190–196, 1990).
(§1) Male, weanling Sprague-Dawley rats were placed on Diet 11 (0.47% Ca) diet+AEK for 11 days, followed by Diet 11 (0.02% Ca)+AEK for 31 days. Dosing (i.p.) began 7 days prior to sacrifice. Doses were given on a daily basis, 24 hours apart. The first 10 cm of the intestine was collected for gut transport studies and serum was collected for bone Ca mobilization analysis.

[2] = Serum calcium (bone calcium mobilization) in rats on low calcium diet, chronic i.p. doses; assay type: in vivo, Sprague-Dawley rats; design: Serum Ca (mean ± SEM): unit not given here; conditions: for Serum Ca (mean ± SEM): male weanling rats, 0.02% Ca diet, 5 animals; for Bone calcium mobilization activity relative to 1,25-(OH)2D3 (in words): summary of Table 1
Description: The in vivo tests to determine serum calcium of rats on a low calcium diet provides an insight to […] or bone activity of (20S)-1α-hydroxy-2α-methyl-19-nor-vitamin D3 and (20S)-1α-hydroxy-2β-methyl-19-nor-vitamin D3.
as §1

[3] = target: T1, vitamin D pig intestinal nuclear receptor (Sus scrofa, UniProt A3RGC1); experiment: Competitive binding of [3H]-1,25-(OH)2-D3 to the porcine intestinal vitamin D receptor; conditions: FIG. 1; for Binding to the vitamin D receptor (in words): compared with 1,25-(OH)2D3
T1 construct: from tissue; host or cells: pig intestine (nuclear receptor preparation)
T1 sequence (A3RGC1 1-427): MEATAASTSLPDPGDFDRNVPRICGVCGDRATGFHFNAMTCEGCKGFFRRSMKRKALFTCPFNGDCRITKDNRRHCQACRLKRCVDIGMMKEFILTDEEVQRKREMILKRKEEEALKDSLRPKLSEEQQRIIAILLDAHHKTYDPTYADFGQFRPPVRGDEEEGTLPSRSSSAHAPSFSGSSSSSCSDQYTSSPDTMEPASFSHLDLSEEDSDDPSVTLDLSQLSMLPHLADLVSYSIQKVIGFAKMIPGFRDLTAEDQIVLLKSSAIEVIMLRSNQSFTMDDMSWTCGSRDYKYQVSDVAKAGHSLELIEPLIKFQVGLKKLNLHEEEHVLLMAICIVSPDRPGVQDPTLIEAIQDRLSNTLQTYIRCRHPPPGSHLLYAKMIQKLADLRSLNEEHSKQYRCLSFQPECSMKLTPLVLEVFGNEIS
Description: FIG. 1 is a graph illustrating the relative activity of (20S)-1α-hydroxy-2α-methyl-19-nor-vitamin D3, (20S)-1α-hydroxy-2β-methyl-19-nor-vitamin D3, and 1α,25-dihydroxyvitamin D3 to compete for binding of [^3H]-1,25-(OH)2-D3 to the vitamin D pig intestinal nuclear receptor; and
Competitive binding of the analogs to the porcine intestinal receptor was carried out by the method described by Dame et al. (Biochemistry 25, 4523–4534, 1986).

HL-60 cells = experiment: Differentiation of HL-60 promyelocytes into monocytes; assay type: cell-based; conditions: FIG. 2
Description: FIG. 2 is a graph illustrating the percent HL-60 cell differentiation as a function of the concentration of (20S)-1α-hydroxy-2α-methyl-19-nor-vitamin D3, (20S)-1α-hydroxy-2β-methyl-19-nor-vitamin D3, and of 1α,25-dihydroxyvitamin D3.
The differentation of HL-60 promyelocytic into monoctyes was determined as described by Ostrem et al. (J. Boil. Chem. 262, 14164–14171, 1987).

[4] = 130 pmol/day i.p. daily for 7 days
[5] = 260 pmol/day i.p. daily for 7 days

Binding to the vitamin D receptor (in words) [3] | Affinity for the vitamin D receptor, fold less than 1α,25-dihydroxyvitamin D3 ([3]; relative to 1,25-(OH)2D3) | Binding to the vitamin D receptor (in words) ([3]; listed as 2β-methyl-(20S)-1α-hydroxyvitamin D3) | SMILES | Ca transport S/M (mean ± SEM) [1, 4] | Ca transport S/M (mean ± SEM) [1, 5] | Serum Ca (mean ± SEM) [2, 4] | Serum Ca (mean ± SEM) [2, 5] | Potency on HL-60 differentiation relative to 1,25-(OH)2D3 (in words) (HL-60 cells; listed as (20S)-1α-Hydroxy-2α-methyl-19-nor-vitamin D3) | Potency on HL-60 differentiation relative to 1,25-(OH)2D3 (in words) (HL-60 cells; listed as (20S)-1α-hydroxy-2α-methyl-19-nor-vitamin D3) | Activity in stimulating intestinal calcium transport relative to 1,25-(OH)2D3 (in words) [1] | Bone calcium mobilization activity relative to 1,25-(OH)2D3 (in words) [2] | Potency on HL-60 differentiation relative to 1,25-(OH)2D3 (in words) (HL-60 cells) | HL-60 differentiation activity, times less active than 1,25(OH)2D3 (HL-60 cells; relative to 1,25(OH)2D3)
– | – | – | C=C1/C(=C\C=C2/CCC[C@]3(C)[C@@H]([C@H](C)CCCC(C)(C)O)CC[C@@H]23)C[C@@H](O)C[C@@H]1O [1α,25-(OH)2D3, 1α,25-dihydroxyvitamin D3, reference compound] | 5.3 ± 0.42 | 6.5 ± 0.84 | 5.0 ± 0.05 | 5.5 ± 0.16 | – | – | – | – | – | –
much less active than 1,25(OH)2D3 | 100 fold | – | CC(C)CCC[C@H](C)C1CCC2/C(=C/C=C3C[C@@H](O)C(C)[C@H](O)C3)CCC[C@@]21C (stereo partly drawn) [(20S)-1α-(OH)-2α-methyl-19-nor-D3, (20S)-1α-hydroxy-2α-methyl-19-nor-vitamin D3] | 8.6 ± 0.90 | 6.7 ± 0.68 | 10.0 ± 0.20 | 12.7 ± 0.15 | only slightly less active than 1,25-(OH)2D3 | almost as potent as 1,25-(OH)2D3 | high activity relative to that of 1,25-(OH)2D3 | higher bone calcium mobilization activity, as compared to 1,25-(OH)2D3 | – | –
much less active than 1,25(OH)2D3 | – | does not bind | CC(C)CCC[C@H](C)C1CCC2/C(=C/C=C3C[C@@H](O)C(C)[C@H](O)C3)CCC[C@@]21C (stereo partly drawn) [(20S)-1α-(OH)-2β-methyl-19-nor-D3, (20S)-1α-hydroxy-2β-methyl-19-nor-vitamin D3] | 6.8 ± 0.73 | 5.7 ± 0.45 | 4.8 ± 0.04 | 5.1 ± 0.04 | – | – | about the same as 1,25-(OH)2D3 | about the same as 1,25-(OH)2D3 | only slightly less active than 1,25-(OH)2D3 | 100 times

Source: patent publication US7064115B2, “(20S)-1α-hydroxy-2α-methyl and 2β-methyl-19-nor-vitamin D3 and their uses” (Wisconsin Alumni Research Foundation, priority 2002, dated 2006)
